Here are results for three compounds from patent US20210293825A1, “METHODS FOR PRECISION THERAPEUTIC TARGETING OF HUMAN CANCER CELL MOTILITY AND KITS THEREOF” (UNITED STATES GOVERNMENT AS REPRESENTED BY THE DEPARTMENT …, priority 2018, published 2021).

For assay [1], the system named is human prostate, breast, colon and lung cancer cells. Put plainly: Single cell migration (motility) assay. The note with it: PC3-M cells, 10 μM, three days. In kind it is cell-based. The source says: FIG. 1a is a schematic flow of probe synthesis and development strategy. […] Values are mean±SEM of a single experiment in replicates of N=4, with similar findings in multiple separate experiments (also N=4). […] Values are mean±SEM of a single experiment in replicates of N=24, with similar findings in a separate experiment (also N=24). *Denotes Student's t test P value <0.05, compared to controls. […] Values are mean±SEM from N>2 separate experiments, each in replicates of N=3. […] Values are the mean±SD number of total, CFU-GM, CFU-GEMM or BFU-E colonies at 14 days after treatment with KBU2046, from a single experiment in replicates of N=2. […] Values are the mean±SD of a single experiment, with similar results seen in a separate experiment, both in replicates of N=2.
Cell Migration Assays. Single cell motility assays were conducted by adding 10^4 cells to 35 mm tissue culture dishes (BD Falcon) coated with collagen I (BD Biosciences), incubating at 37° C. in 5% CO2, performing time-lapse imaging using a Biostation (Nikon Instruments), tracking the path of N≥35 cells using ImageJ software and the Manual Tracker plug-in, and using Chemotaxis and Migration Tool plug-in for data analysis.

For assay [2], the system named is array of over 9,000 human proteins. Put plainly: ProtoArray Human Protein Microarray binding assay. The procedure:
(§1) PC3-M cells were pre-treated with 10 μM KBU2046 or with KBU2046-biotin for three days, and single cell motility assays conducted. Data are the mean±SEM of a single experiment of N≥24 cells; * denotes Student's 2-sided t-test p-value </=0.05 compared to control. […] PC3-M cells were labeled with 1 μM KBU2046-biotin+/−10 μM free KBU2046, followed by detection with FITC-streptavidin, and visualization by fluorescent microscopy (with equal exposure times). […] KBU2046-biotin was hybridized to ProtoArray® Human Protein Microarray's at 0.5 and 10 μM with and without 10 fold excess free KBU2046.
Protein Microarray Binding Assay. The ProtoArray® assay, using the Human Protein Microarray platform, was performed by Invitrogen.
First, the positive control used in protein arrays was staurosporine.

For a further assay, the target named is recombinant CSRP1 (Homo sapiens, UniProt P21291). In words: Pull down of recombinant CSRP1 by KBU2046-biotin. In kind it is binding. The procedure: This yielded 3 proteins, shown in table, for an initial hit rate of 0.03%. Next, free KBU2046 was needed to inhibit binding by >75%. Of the two remaining candidates, isovaleryl-CoA dehydrogenase (ICD) was eliminated. […] Cysteine and glycine-rich protein 1 (CSRP1) was deemed the top protein, though its binding characteristics at 10 μM+free KBU2046 were similar to ICD, albeit not as extreme.

Assay [3] relates to PC3-M cells. In words: KBU2046-biotin labelling of cells (FITC-streptavidin). In kind it is cell-based, human. The settings on record: 1 μM KBU2046-biotin +/- 10 μM free KBU2046. The procedure:
as §1

For assay [4], the system named is human PCa PC3-M cell orthotopic implants. The settings on record: murine orthotopic model; cited from earlier work.
The subject of assay [5] is human prostate cells (PC3, PC3-M, 1532NPTX, 1542NPTX, 1532CPTX, 1542CPTX). The settings on record: nanomolar concentrations; cited from earlier work.
The test system of assay [6] is matrix metalloproteinase 2 (MMP-2) expression. The settings on record: prospective human trial; cited from earlier work.
Assay [7] relates to protein phosphorylation in PC3-M and PC3 cells. In words: KinomeView phospho-motif antibody screen. In kind it is cell-based, human. The settings on record: 10 μM, 3 days, ±TGFβ. An excerpt: Seeking to identify KBU2046's biological target(s), alternative methods were pursued. The KinomeView® panel of antibodies (Cell Signaling Technology, Inc.) detect established protein phosphorylation motifs, and were used to probe for KBU2046-induced changes in protein phosphorylation (FIG. 4a and FIG. 17). Phosphoprotein changes that met the following criteria were prioritized: were induced in cells in vitro as well as in tumors of treated mice (from FIG. 2a), that counteracted transforming growth factor β (TGFβ)-induced effects, and that were reproducible. TGFβ is ubiquitous in vivo, is known to increase PCa cell invasion (Huang, X. et al., Cancer Research 65, 3470-8 (2005)), and KBU2046's anti-invasion efficacy remains in spite of TGFβ-stimulated increases in cell invasion (FIG. 18). Genistein was evaluated under identical treatment conditions for comparison. […] In tumors of treated animals KBU2046 had this same effect on this 83 kDa protein band (green arrow in FIG. 17a). The high molecular selectivity of KBU2046 was further supported by its failure to inhibit over 400 different protein kinases and 20 phosphatases examined, in three different in vitro assay systems (see, Example 1).
Phospho-proteomic Analysis. The Kinoview™ and PhosphoScan™ assays were performed by Cell Signaling Technology Inc. […]

In another assay the target is T1, MKK4 (Homo sapiens, UniProt P45985, S257E/T261E).
T1 sequence (P45985 37-399 S257E/T261E): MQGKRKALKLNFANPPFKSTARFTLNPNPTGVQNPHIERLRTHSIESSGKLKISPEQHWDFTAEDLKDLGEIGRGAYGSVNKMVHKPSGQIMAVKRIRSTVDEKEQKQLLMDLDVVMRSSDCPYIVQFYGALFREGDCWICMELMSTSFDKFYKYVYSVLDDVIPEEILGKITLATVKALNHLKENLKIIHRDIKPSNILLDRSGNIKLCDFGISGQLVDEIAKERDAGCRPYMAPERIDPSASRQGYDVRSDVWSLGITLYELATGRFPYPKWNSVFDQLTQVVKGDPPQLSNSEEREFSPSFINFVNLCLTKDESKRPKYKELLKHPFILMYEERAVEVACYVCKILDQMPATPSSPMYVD
The settings on record: low nanomolar concentrations; cited from earlier work.

Assay [8] concerns phosphorylation of p38 MAPK or of HSP27. The note with it: cited from earlier work.
Assay [9] has as its system PC3-M cells. In words: Boyden chamber cell invasion assay, PC3-M cells. In kind it is cell-based, human. The settings on record: 10 μM compound, 3 days. The procedure: Following the synthetic strategy outlined in FIG. 1a, 4′,5,7-trihydroxyisoflavone was used as the chemical scaffold. […] Note, demethylation within the cell cannot be predicted. Therefore, the loss of function was considered to be informative for methylated compounds. […] This adds further evidence of the importance of the C4′-hydroxyl for activity. […] For cell invasion, PC3-M cells were treated with 10 μM compound for a total of 3 days, and cell invasion assays were run at the end of the 3 day period, in the presence of compound. Values are the mean±SEM of three separate experiments, each run in replicates of N=3. […] Values are the mean±SEM of a single experiment, in replicates of N=4, repeated at least once (also N=4). […] The initial structure-activity relationship (SAR) data informed the second round of compound synthesis. […] Compared to 4′,5,7-trihydroxyisoflavone, KBU2046 is non-planar, lacks hydroxyl groups, and particularly those that mediate ER binding, is halogen-substituted, and has a distinctly different biological profile. These characteristics place KBU2046 in a chemically distinct class, compared to the starting compound.
Cell Invasion Assays. Boyden chamber cell invasion assays were performed as previously described^9, using either denatured collagen (BD Biosciences) or type IV human collagen (BD Biosciences), with the experiments repeated, each in N=4 replicates. In some experiments, as indicated, cells were transfected with an expression plasmid, using Lipofectamine 2000™ (Invitrogen), or with siRNA, using DharmaFect Duo (Thermo Scientific) and co-transfected with β-Galactosidase (Plasmid pCMV⋅SPORT-βgal; Life Technology).
The initial round of synthesis was designed to examine the removal of individual chemical fragments. In this manner, the importance of these functional groups in mediating efficacy (inhibition of cell invasion) could be determined. […] Initial assays were performed with PC3 and PC3-M cells. However, as these studies yielded similar findings, subsequent screening assays utilized only PC3-M cells. In designing chemical synthetic routes, priority was given to efficacy and toxicity parameters. […] These additional design features included removal of fragments that mediated genistein binding to the estrogen receptor (ER), as determined by ER-genistein 3D x-ray crystal structures (Protein Data Base IDs: 1X7R and 1X7J, for crystal structures of ERα and ERβ with bound genistein, respectively). These features also included removal of chemical fragments that are considered to increase susceptibility to rapid metabolism, for example by the cytochrome P450 (CYP) pathway. The final feature involved incorporation of chemical characteristics previously shown to be associated with effective drugs and which together generally impart more favorable pharmacologic properties, including those described by Lipinski et al. (Lipinski, C. A. et al., Adv Drug Deliv Rev 46, 3-26 (2001)).

Molecules are shown by their SMILES.

Chain of recombinant CSRP1 (P21291 whole entry): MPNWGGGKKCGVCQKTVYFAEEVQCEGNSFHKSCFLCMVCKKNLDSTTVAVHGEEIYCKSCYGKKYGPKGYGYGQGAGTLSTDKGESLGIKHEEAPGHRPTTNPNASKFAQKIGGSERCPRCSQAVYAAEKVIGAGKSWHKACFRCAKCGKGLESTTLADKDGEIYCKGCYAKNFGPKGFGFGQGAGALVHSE

In the case of `O=C(CCCC[C@@H]1SC[C@@H]2NC(=O)N[C@@H]21)NCCOCCOCCOCCOc1ccc2c(c1)OCC(c1ccc(F)cc1)C2=O` (stereo partly drawn) [KBU2046-biotin], the single cell motility entry in [1] is “biologically active”. In assay [2], the “binding to HSP90β and CDC37 on the protein arrays” value is recorded as “not bound”; the “binding to protein arrays” value is listed as “lack of binding”. The compound also yielded an initial hit rate in assay [2] (0.5 and 10 μM) of 0.03%. Besides, the “number of proteins meeting binding criteria” value in assay [2] (0.5 and 10 μM, absence of free KBU2046) stood at 3. Moreover, the “pull down of recombinant CSRP1” value at recombinant CSRP1 was “no evidence of such was observed”. Besides, the labelling of cells result with PC3-M cells [3] is listed as “labels permeablized cells in a manner that can be competed off”.
With `O=c1c(-c2ccc(O)cc2)coc2cc(O)cc(O)c12` [genistein, 4′,5,7-trihydroxyisoflavone], the inhibition of metastasis entry in assay [4] is recorded as “inhibit”. Also, the “inhibition of human PCa cell invasion in vitro” value in [5] is “inhibit human prostate cancer (PCa) cell invasion in vitro”. The “MMP-2 expression in prostate tissue” value in assay [6] was “downregulates matrix metalloproteinase 2 (MMP-2) expression in prostate tissue”. Besides, the “changes in protein phosphorylation” value in assay [7] was “induced widespread changes in protein phosphorylation”. In addition, on MKK4, the “inhibition of MKK4 kinase activity” value was “inhibited the kinase activity”. Besides, the “downstream phosphorylation of p38 MAPK and HSP27” value in assay [8] is reported as “inhibiting downstream phosphorylation of p38 MAPK”. Also, the “effect on cell invasion” value with PC3-M cells [9] is listed as “had anti-invasion efficacy”.
`CN[C@@H]1C[C@H]2O[C@@](C)([C@@H]1OC)n1c3ccccc3c3c4c(c5c6ccccc6n2c5c31)C(=O)NC4` [staurosporine, reference compound]: the “number of proteins bound at levels >/=10 fold above background” value in assay [2] (positive control) stood at 214.
